Laboratory results published in ChEMBL document CHEMBL1201862, “PubChem BioAssay data set” (2004).
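Results reflect a 48-hour exposure of cells in 96-well plates to compound at five concentrations. Here, GI50 denotes the concentration required for 50% inhibition of growth.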 Active and inactive are the calls of the source. Rule as the data show it: active = GI50 up to about 1.1 µM and inactive = higher.

Tests used:
Experiment in all cases: DTP human tumour cell line panel, 48 h
SR = system: SR
SNB-19 = system: SNB-19
A549 = system: A549
SK-MEL-28 = system: SK-MEL-28
HL-60 = system: HL-60
OVCAR-8 = system: OVCAR-8
SNB-75 = system: SNB-75
EKVX = system: EKVX
OVCAR-5 = system: OVCAR-5
NCI-H460 = system: NCI-H460
SF-539 = system: SF-539
NCI/ADR-RES = system: NCI/ADR-RES
HT-29 = system: HT-29
SK-OV-3 = system: SK-OV-3
A498 = system: A498
CCRF-CEM = system: CCRF-CEM
MOLT-4 = system: MOLT-4
OVCAR-4 = system: OVCAR-4
RXF 393 = system: RXF 393
K562 = system: K562

SMILES | GI50 (SR) | GI50 (SNB-19) | GI50 (A549) | GI50 (SK-MEL-28) | GI50 (HL-60) | GI50 (OVCAR-8) | GI50 (SNB-75) | GI50 (EKVX) | GI50 (OVCAR-5) | GI50 (NCI-H460) | GI50 (SF-539) | GI50 (NCI/ADR-RES) | GI50 (HT-29) | GI50 (SK-OV-3) | GI50 (A498) | GI50 (CCRF-CEM) | GI50 (MOLT-4) | GI50 (OVCAR-4) | GI50 (RXF 393) | GI50 (K562)
C/C(=C\c1ccc(Cl)cc1)C(C)(C)C(=O)O | 3.75 µM (inactive) | > 100 µM (inactive) | > 100 µM (inactive) | > 100 µM (inactive) | > 100 µM (inactive) | > 100 µM (inactive) | > 100 µM (inactive) | > 100 µM (inactive) | > 100 µM (inactive) | > 100 µM (inactive) | > 100 µM (inactive) | > 100 µM (inactive) | > 100 µM (inactive) | > 100 µM (inactive) | > 100 µM (inactive) | 52.5 µM (inactive) | > 100 µM (inactive) | > 100 µM (inactive) | > 100 µM (inactive) | 1.95 µM (inactive)
CC(CCC(=O)O)(c1cc(Br)c(O)c(Br)c1)c1cc(Br)c(O)c(Br)c1 | 39.1 µM (inactive) | 57.9 µM (inactive) | > 100 µM (inactive) | 45 µM (inactive) | 21.4 µM (inactive) | 78.2 µM (inactive) | 55.7 µM (inactive) | > 100 µM (inactive) | > 100 µM (inactive) | 40.6 µM (inactive) | 50.4 µM (inactive) | 83.8 µM (inactive) | 93.1 µM (inactive) | > 100 µM (inactive) | 30.5 µM (inactive) | < 0.01 µM (active) | 48.3 µM (inactive) | > 100 µM (inactive) | 54.8 µM (inactive) | 71.3 µM (inactive)
Cn1c2ccccc2c2ccc3c(c21)C(=O)C=CC3=O | 0.796 µM (active) | 26.5 µM (inactive) | 26.2 µM (inactive) | 11.1 µM (inactive) | 0.738 µM (active) | 7.03 µM (inactive) | 16.7 µM (inactive) | 19.4 µM (inactive) | 14.1 µM (inactive) | 16.9 µM (inactive) | 11.5 µM (inactive) | 5.16 µM (inactive) | 10.5 µM (inactive) | 17.1 µM (inactive) | > 45.2 µM (inactive) | 0.69 µM (active) | 0.755 µM (active) | 1.82 µM (inactive) | 2.47 µM (inactive) | 1.75 µM (inactive)
c1ccc(C2=NN(c3nc4ccccc4s3)C3(CCCCC3)N2)nc1 | 1.85 µM (inactive) | 40.2 µM (inactive) | 27.4 µM (inactive) | 44.3 µM (inactive) | 25.2 µM (inactive) | 31.8 µM (inactive) | 25.6 µM (inactive) | 33.9 µM (inactive) | 43.5 µM (inactive) | 15.2 µM (inactive) | 46.3 µM (inactive) | 19.7 µM (inactive) | 19.9 µM (inactive) | > 100 µM (inactive) | 32.2 µM (inactive) | 29 µM (inactive) | 4.01 µM (inactive) | 24.8 µM (inactive) | 21.9 µM (inactive) | 16.6 µM (inactive)
COc1ccc(-c2cc(C(O)C3CCCCN3)c3ccccc3n2)cc1 (stereo not given) | 0.394 µM (active) | 13.7 µM (inactive) | 13.8 µM (inactive) | 2.43 µM (inactive) | 11.1 µM (inactive) | 13.7 µM (inactive) | 4.31 µM (inactive) | 6.92 µM (inactive) | 12 µM (inactive) | 3.05 µM (inactive) | 10.1 µM (inactive) | 16.7 µM (inactive) | 3.11 µM (inactive) | 14.2 µM (inactive) | 12.3 µM (inactive) | 2.8 µM (inactive) | 3.59 µM (inactive) | 13.7 µM (inactive) | 4.58 µM (inactive) | 2.54 µM (inactive)
CC(C(=O)[O-])S(=O)(=O)O.CCc1c2cc(OC)c(OC)cc2cc2c3cc(OC)c(OC)cc3cc[n+]12 | 13.3 µM (inactive) | 3.94 µM (inactive) | 47.4 µM (inactive) | 21.7 µM (inactive) | 20.8 µM (inactive) | 20 µM (inactive) | 7.94 µM (inactive) | 67.6 µM (inactive) | 58.7 µM (inactive) | 42.4 µM (inactive) | 9.77 µM (inactive) | 38.1 µM (inactive) | 45.2 µM (inactive) | 41.6 µM (inactive) | 53.1 µM (inactive) | 9.14 µM (inactive) | 20.4 µM (inactive) | 10.2 µM (inactive) | 65.2 µM (inactive) | 7.57 µM (inactive)
CN1CCN(c2ccc3nc(C4=C(O)C(=O)c5c(nc(CCl)n5C)C4=O)[nH]c3n2)CC1 | 31.8 µM (inactive) | 8.95 µM (inactive) | 30 µM (inactive) | 19.3 µM (inactive) | > 50 µM (inactive) | 8.05 µM (inactive) | 3.72 µM (inactive) | 21.7 µM (inactive) | 14.2 µM (inactive) | 20.2 µM (inactive) | > 50 µM (inactive) | > 50 µM (inactive) | 11.6 µM (inactive) | 10.5 µM (inactive) | 11.5 µM (inactive) | > 50 µM (inactive) | 21.8 µM (inactive) | 15.7 µM (inactive) | 2.73 µM (inactive) | 24.2 µM (inactive)
Cc1ccc(C(=O)c2[nH]c(Nc3ccc(Cl)cc3)c(C(=S)Nc3ccccc3)c2N)cc1 | 2.05 µM (inactive) | 5.61 µM (inactive) | 2.27 µM (inactive) | 4.21 µM (inactive) | 44.4 µM (inactive) | 4.68 µM (inactive) | 2.94 µM (inactive) | 5.48 µM (inactive) | 11 µM (inactive) | 4.2 µM (inactive) | 5.3 µM (inactive) | 4.37 µM (inactive) | 4.43 µM (inactive) | 14.2 µM (inactive) | 13.6 µM (inactive) | 8.65 µM (inactive) | 12.1 µM (inactive) | 1.97 µM (inactive) | 4.94 µM (inactive) | 7.38 µM (inactive)
CC1(C)N=C(N)N=C(N)N1c1ccc(Cl)cc1 | 1.36 µM (inactive) | 22.6 µM (inactive) | 0.665 µM (active) | 37.1 µM (inactive) | 15.4 µM (inactive) | 0.817 µM (active) | > 100 µM (inactive) | 26.7 µM (inactive) | 15 µM (inactive) | 3.38 µM (inactive) | 4.42 µM (inactive) | > 100 µM (inactive) | 2.92 µM (inactive) | 27.4 µM (inactive) | 58.6 µM (inactive) | 2.74 µM (inactive) | 1.71 µM (inactive) | > 100 µM (inactive) | 53.2 µM (inactive) | 0.317 µM (active)
